The results in this text go back to ChEMBL document CHEMBL1158718, “4-Hydroxybenzoyl derivative from the aqueous extract of the hydroid Campanularia sp” (J Nat Prod, 2005).

Active and inactive are the calls of the source. The calls are words filed in the database; no cut-off is given here.

Test [1] deals with ARP1. In words: Induction of P21WAF1 gene expression in human ARP1 cells. It is filed as functional, cell-based.
The test system of test [2] is ARP1. In words: Growth inhibition of human ARP1 cells up to 100 uM. The format is functional, cell-based.
The target of test [3] is Histone deacetylase (Homo sapiens) (UniProt Q13547+O15379+Q9UBN7+Q92769+Q9UQL6+Q8WUI4+Q9BY41+Q96DB2+P56524+Q9UKV0+Q969S8). In words: Inhibition of HDAC in human ARP1 cells. It is filed as cell-based.

Turning to `O=C(CCCCCCC(=O)Nc1ccccc1)NO`, the outcome in the test with ARP1 [1] was Active.

With `N=C(N)NCCCCNC(=O)C(=O)c1ccc(O)cc1`, the outcome (in the test with ARP1 [2]; in test [3]) was inactive.
